{"source": "paper PMC10440361", "about": "(Current Research in Pharmacology and Drug Discovery, 2023)", "key": {"[1]": {"system": "adult male cynomolgus monkeys", "type": "in vivo", "details": "for average increase in MAP between 30 min and 5 h: vehicle 3.5 mmHg; for maximum MAP values (increase from baseline) / maximum Δ MAP: telemetered cynomolgus monkeys; for maximum MAP values (increase from baseline): IV vehicle 22.2 ± 3.5 mmHg; for time for which increases from baseline in MAP above 20 mmHg were sustained: average; for average increase in MAP between 30 min and 5 h after administration: vehicle SC 0.8 mmHg; for maximum Δ MAP: vehicle SC 25.9 ± 1.6 mmHg"}, "adult male Wistar rats": {"system": "adult male Wistar rats", "assay": "Skin blood flow", "type": "in vivo", "details": "anesthetized rats, IV infusion; discussion statement"}, "[2]": {"system": "adult male Sprague Dawley rats", "assay": "Arterial blood pressure by telemetry after SC administration in rats", "type": "in vivo", "details": "conscious telemetered Sprague Dawley rats, n=6"}, "human V1a receptors": {"biological_target": "human V1a receptors", "details": "read-out: EC50 for human V1a; ref Croston et al., 2023; cited from earlier work"}, "human V2 receptors": {"system": "human V2 receptors", "details": "ref Croston et al., 2023, cited from earlier work"}, "rat V2 receptor": {"system": "rat V2 receptor", "details": "cell-based functional assays; ref Croston et al., 2023; cited from earlier work"}}, "note": "Where two headings read alike, the source gives them in different places."}
{"substance": "N-[N-(N-glycylglycyl) glycyl]-8-L-lysinevasopressin [Terlipressin]", "values": [{"measurement": "time past which MAP increases from baseline above 20 mmHg were not sustained", "setting": "[1]; monkeys, IV bolus 0.03 mg/kg, on average", "result": "≤ 30", "unit": "min"}, {"measurement": "average increase in MAP between 30 min and 5 h", "setting": "[1]; monkeys, IV bolus 0.03 mg/kg", "result": 6.0, "unit": "mmHg"}, {"measurement": "time past which MAP increases from baseline above 20 mmHg were not sustained", "setting": "[1]; monkeys, IV bolus 0.09 mg/kg, on average", "result": "≤ 30", "unit": "min"}, {"measurement": "average increase in MAP between 30 min and 5 h", "setting": "[1]; monkeys, IV bolus 0.09 mg/kg", "result": 5.8, "unit": "mmHg"}, {"measurement": "time past which MAP increases from baseline above 20 mmHg were not sustained", "setting": "[1]; monkeys, IV bolus 0.17 mg/kg, on average", "result": "≤ 75", "unit": "min"}, {"measurement": "average increase in MAP between 30 min and 5 h", "setting": "[1]; monkeys, IV bolus 0.17 mg/kg", "result": 14.6, "unit": "mmHg"}, {"measurement": "time past which MAP increases from baseline above 20 mmHg were not sustained", "setting": "[1]; monkeys, IV bolus 0.34 mg/kg, on average", "result": "≤ 90", "unit": "min"}, {"measurement": "average increase in MAP between 30 min and 5 h", "setting": "[1]; monkeys, IV bolus 0.34 mg/kg", "result": 14.7, "unit": "mmHg"}, {"measurement": "time after administration by which ΔMAP was negligible", "setting": "[1]; monkeys, IV bolus, all treatment groups 0.03 to 0.34 mg/kg, on average", "result": "≤ 150", "unit": "min"}, {"measurement": "maximum MAP values (increase from baseline)", "setting": "[1]; IV bolus 0.03 mg/kg", "result": "29.6 ± 3.6", "unit": "mmHg"}, {"measurement": "maximum MAP values (increase from baseline)", "setting": "[1]; IV bolus 0.09 mg/kg", "result": "29.9 ± 6.2", "unit": "mmHg"}, {"measurement": "maximum MAP values (increase from baseline)", "setting": "[1]; IV bolus 0.17 mg/kg", "result": "50.8 ± 5.6", "unit": "mmHg"}, {"measurement": "maximum MAP values (increase from baseline)", "setting": "[1]; IV bolus 0.34 mg/kg", "result": "41.2 ± 7.5", "unit": "mmHg"}]}
{"substance": "[Phe2,Dab(Lys(Lys(Ac)-[Ala6,Glu9]))8]VT [OCE-205]", "values": [{"measurement": "approximately maximal decrease in SBF from baseline", "setting": "adult male Wistar rats", "result": "~40", "unit": "%"}, {"measurement": "maximum increase in mean arterial blood pressure vs mean pre-test value", "setting": "[2]; SC 0.1 mg/kg, at 1 h", "result": "+22 mmHg"}, {"measurement": "maximum increase in mean arterial blood pressure vs mean pre-test value", "setting": "[2]; SC 0.6 mg/kg, at 2 h", "result": "+22 mmHg"}, {"measurement": "maximum increase in mean arterial blood pressure vs mean pre-test value", "setting": "[2]; SC 4 mg/kg, at 3 and 4 h", "result": "+38 mmHg"}, {"measurement": "maximum increase in mean arterial blood pressure vs mean pre-test value", "setting": "[2]; SC 20 mg/kg, at 4 h", "result": "+46 mmHg"}, {"measurement": "time for which increases from baseline in MAP above 20 mmHg were sustained", "setting": "[1]; monkeys, SC bolus 0.01 mg/kg", "result": 150, "unit": "min"}, {"measurement": "average increase in MAP between 30 min and 5 h after administration", "setting": "[1]; monkeys, SC bolus 0.01 mg/kg", "result": 20.6, "unit": "mmHg"}, {"measurement": "time for which increases from baseline in MAP above 20 mmHg were sustained", "setting": "[1]; monkeys, SC bolus 0.05 mg/kg", "result": 75, "unit": "min"}, {"measurement": "average increase in MAP between 30 min and 5 h after administration", "setting": "[1]; monkeys, SC bolus 0.05 mg/kg", "result": 18.4, "unit": "mmHg"}, {"measurement": "time for which increases from baseline in MAP above 20 mmHg were sustained", "setting": "[1]; monkeys, SC bolus 0.5 mg/kg", "result": 300, "unit": "min"}, {"measurement": "Δ MAP maintained throughout the 8 h of measurement", "setting": "[1]; monkeys, SC bolus 0.5 mg/kg, on average", "result": "above 14 mmHg"}, {"measurement": "average increase in MAP between 30 min and 5 h after administration", "setting": "[1]; monkeys, SC bolus 0.5 mg/kg", "result": 24.8, "unit": "mmHg"}, {"measurement": "maximum Δ MAP", "setting": "[1]; SC bolus 0.01 mg/kg", "result": "36.1 ± 2.1", "unit": "mmHg"}, {"measurement": "maximum Δ MAP", "setting": "[1]; SC bolus 0.05 mg/kg", "result": "34.9 ± 1.1", "unit": "mmHg"}, {"measurement": "maximum Δ MAP", "setting": "[1]; SC bolus 0.5 mg/kg", "result": "41.6 ± 6.5", "unit": "mmHg"}, {"measurement": "EC50", "setting": "human V1a receptors", "result": 0.7, "unit": "nM"}, {"measurement": "activity at human V2 receptors", "setting": "human V2 receptors; at clinically relevant concentrations", "result": "little to no activity"}, {"measurement": "activity at the human V2 receptor", "setting": "human V2 receptors; cell-based functional assays", "result": "no activity"}, {"measurement": "activity at the rat V2 receptor", "setting": "rat V2 receptor", "result": "no activity"}]}
